The results in this text go back to US9783552B2, “Soluble guanylate cyclase activators” (MERCK SHARP & DOHME CORP., priority 2013, dated 2017).

pEC50: −log10 of the molar value.

In one assay the target is T1, sGC α1/β1 heterodimer (Homo sapiens, UniProt Q02108+Q02153).
T1 construct: expressed in transfected cells
T1 sequence (Q02108 1-690): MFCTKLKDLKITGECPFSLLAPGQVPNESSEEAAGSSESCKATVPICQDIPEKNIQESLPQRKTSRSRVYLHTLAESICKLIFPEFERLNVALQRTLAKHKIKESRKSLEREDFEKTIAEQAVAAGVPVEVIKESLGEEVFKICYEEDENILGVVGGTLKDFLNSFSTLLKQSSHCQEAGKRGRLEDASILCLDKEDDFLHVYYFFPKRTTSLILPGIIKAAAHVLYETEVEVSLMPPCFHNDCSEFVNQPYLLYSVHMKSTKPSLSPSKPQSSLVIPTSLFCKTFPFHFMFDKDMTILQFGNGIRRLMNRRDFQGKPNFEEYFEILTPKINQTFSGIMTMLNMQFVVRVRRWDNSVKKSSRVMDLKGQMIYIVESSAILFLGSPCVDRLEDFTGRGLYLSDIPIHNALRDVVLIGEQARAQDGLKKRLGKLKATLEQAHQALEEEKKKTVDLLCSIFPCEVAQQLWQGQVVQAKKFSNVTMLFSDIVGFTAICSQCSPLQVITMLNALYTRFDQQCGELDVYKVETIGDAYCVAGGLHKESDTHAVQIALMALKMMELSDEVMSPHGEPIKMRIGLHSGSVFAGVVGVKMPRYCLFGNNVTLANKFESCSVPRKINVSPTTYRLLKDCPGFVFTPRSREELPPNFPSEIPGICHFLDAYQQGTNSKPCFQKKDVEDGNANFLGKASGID
T1 sequence (Q02153 1-619): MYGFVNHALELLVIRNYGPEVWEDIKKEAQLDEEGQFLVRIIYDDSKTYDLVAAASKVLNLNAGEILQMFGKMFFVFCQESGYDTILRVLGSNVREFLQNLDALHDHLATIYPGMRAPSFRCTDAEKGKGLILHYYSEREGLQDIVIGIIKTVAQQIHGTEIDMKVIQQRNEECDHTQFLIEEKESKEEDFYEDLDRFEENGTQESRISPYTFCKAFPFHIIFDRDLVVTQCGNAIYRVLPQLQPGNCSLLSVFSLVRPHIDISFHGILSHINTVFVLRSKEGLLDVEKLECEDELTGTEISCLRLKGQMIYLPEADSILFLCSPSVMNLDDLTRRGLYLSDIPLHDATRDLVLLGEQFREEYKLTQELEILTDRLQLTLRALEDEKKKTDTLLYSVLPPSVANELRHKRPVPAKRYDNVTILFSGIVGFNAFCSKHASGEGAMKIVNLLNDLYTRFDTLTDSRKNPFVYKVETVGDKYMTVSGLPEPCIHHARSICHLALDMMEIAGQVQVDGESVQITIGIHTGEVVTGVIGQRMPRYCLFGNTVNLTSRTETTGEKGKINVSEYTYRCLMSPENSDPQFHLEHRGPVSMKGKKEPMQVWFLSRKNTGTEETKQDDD
Nature of the assay: Cell-Based sGC Functional Assay (CASA Assay). Conditions: CHO-K1/sGC cells; for pEC50: intracellular cGMP by HTRF, 1 hr at 37° C., IP from 4P fit, presence or absence of 1 μM DETA-NO not given; for Emax: cGMP as percentage of maximum cGMP production of Compound A (=100% activation), read-out: % ACT (percent activation). In short, it runs like this:
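cGMP accumulation was quantified by HTRF in stable human sGC α1/β1 CHO-K1 cells after 1 hr at 37 °C with compound, 0.5 mM IBMX and 2.5% DMSO. Runs were done in the presence and absence of 1 μM of the NO donor DETA-NO. Activation was normalised to the reference heme-dependent activator maximum (100%), and a 4P fit gave IP and maximum fold induction.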

In assay [1] the test system is Spontaneously hypertensive rats (SHR). Nature of the assay: Acute Efficacy in Spontaneously Hypertensive Rats (SHR). The assay is classed as in vivo, rat. Conditions: single oral gavage. From the text: Acute Efficacy in Spontaneously Hypertensive Rats (SHR)
Spontaneously hypertensive rats (SHR, male, Charles River) were implanted with DSI TA 11PA-C40 telemetry device (Data Sciences, Inc., St. Paul, Minn.) under isoflurane or ketamine/metomidine anesthesia. The telemetry unit catheter was inserted into the descending aorta via the femoral artery and the telemetry device was implanted subcutaneously in the left flank area. Animals were allowed to recover from surgery for 14 days before the start of any studies. Blood pressure, heart rate, and activity signals from conscious, freely moving rats were recorded continuously for 30 seconds every 10 min. On the day prior to administration of compound, a single oral dose of vehicle (10% transcutol/20% Cremophor/70% water) was administered to all animals to establish baseline control data. The blood pressure lowering efficacy of compound (PO) or vehicle was evaluated following a single oral gavage. Data were collected as hourly averages, and changes in blood pressure were calculated by subtracting control baseline data on an hourly basis. Animals were maintained on normal diet with a 12 h light-dark cycle.
Maximum peak decreases of systolic blood pressure (SBP) in SHR at a particular P.O. dose (mpk milligrams per kilogram) for the following Example compounds are provided. Category A=SBP in SHRs<25 mmHg; Category B=SBP in SHRs 25-40 mmHg; Category C=SBP in SHRs>40 mmHg.

With `CCn1ncc2c(-c3nc(N)c4c(n3)NC(=O)C4(C)c3ccccc3)nc(CCC(F)(F)C(F)(F)F)nc21` (single isomer, unassigned) [Example 7, 4-Amino-2-(1-ethyl-6-(3,3,4,4,4-pentafluorobutyl)-1H-pyrazolo[3,4-d]pyrimidin-4-yl)-5-methyl-5-phenyl-5H-pyrrolo[2,3-d]pyrimidin-6(7H)-one], on sGC α1/β1 heterodimer, the pEC50 is 7.07 and the Emax came out at 110%. For the same compound, the “Maximum peak decrease of systolic blood pressure (SBP) in SHR, Category” value (from here on “Maximum peak decrease”) in assay [1] (Dose 3 mpk P.O.) is listed as “B (Category B=SBP in SHRs 25-40 mmHg)”.
For `Cn1ncc2c(-c3nc(N)c4c(n3)NC(=O)C4(C)c3ccccc3)nc(CCC(F)(F)F)nc21` (single isomer, unassigned) [Example 4, 4-Amino-5-methyl-2-(1-methyl-6-(3,3,3-trifluoropropyl)-1H-pyrazolo[3,4-d]pyrimidin-4-yl)-5-phenyl-5H-pyrrolo[2,3-d]pyrimidin-6(7H)-one], at sGC α1/β1 heterodimer, the negative-log EC50 (pEC50) was 6.89 and the Emax came to 108%. In addition, the “Maximum peak decrease” value in assay [1] (Dose 3 mpk P.O.) is on record as “C (Category C=SBP in SHRs>40 mmHg)”.
Taken in the same sequence, the figures for `Cn1ncc2c(-c3nc(N)c4c(n3)NC(=O)C4(C)c3ccc(F)cc3)nc(Cc3cccc(F)c3F)nc21` (single isomer, unassigned) [Example 6, 4-Amino-2-(6-(2,3-difluorobenzyl)-1-methyl-1H-pyrazolo[3,4-d]pyrimidin-4-yl)-5-(4-fluorophenyl)-5-methyl-5H-pyrrolo[2,3-d]pyrimidin-6(7H)-one] were 6.80, 127% and “A (Category A=SBP in SHRs<25 mmHg)”.
`[2H]C([2H])([2H])n1ncc2c(-c3nc(N)c4c(n3)NC(=O)C4(C)C)nc(CCC(F)(F)C(F)(F)F)nc21` [Example 12, 4-Amino-5,5-dimethyl-2-(6-(3,3,4,4,4-pentafluorobutyl)-1-trideuteriomethyl-1H-pyrazolo[3,4-d]pyrimidin-4-yl)-5H-pyrrolo[2,3-d]pyrimidin-6(7H)-one]: at sGC α1/β1 heterodimer, the negative-log EC50 (pEC50) is 6.55 and the Emax was determined as 75%. Further, the “Maximum peak decrease” value in assay [1] (Dose 1 mpk P.O.) is given as “B (Category B=SBP in SHRs 25-40 mmHg)”.
Taken in the same sequence, the figures for `Cn1ccc2c(-c3nc(N)c4c(n3)NC(=O)C4(C)c3ccc(F)cc3)nc(CCC(F)(F)C(F)(F)F)nc21` (single isomer, unassigned) [Example 61, 4-Amino-5-(4-fluorophenyl)-5,7′-dimethyl-2′-(3,3,4,4,4-pentafluorobutyl)-5H,7′H-[2,4′-bipyrrolo[2,3-d]pyrimidin]-6(7H)-one] were 7.21, 91% and “A (Category A=SBP in SHRs<25 mmHg)”.
Turning to `Cn1ncc2c(-c3nc(N)c4c(n3)NC(=O)C4(C)C(=O)NC3CC3)nc(CCC(F)(F)C(F)(F)F)nc21` (single isomer, unassigned) [Example 31, 4-Amino-N-cyclopropyl-5-methyl-2-(1-methyl-6-(3,3,4,4,4-pentafluorobutyl)-1H-pyrazolo[3,4-d]pyrimidin-4-yl)-6-oxo-6,7-dihydro-5H-pyrrolo[2,3-d]pyrimidine-5-carboxamide], at sGC α1/β1 heterodimer, the pEC50 was 6.72 and the Emax was 132%. The “Maximum peak decrease” value in assay [1] (Dose 0.3 mpk P.O.) is given as “B (Category B=SBP in SHRs 25-40 mmHg)”.
As to `Cn1ncc2c(-c3nc(N)c4c(n3)NC(=O)C4(C)c3ccccc3)nc(CCC(F)(F)C(F)(F)F)nc21` (single isomer, unassigned) [Example 1, 4-Amino-5-methyl-2-(1-methyl-6-(3,3,4,4,4-pentafluorobutyl)-1H-pyrazolo[3,4-d]pyrimidin-4-yl)-5-phenyl-5H-pyrrolo[2,3-d]pyrimidin-6(7H)-one], at sGC α1/β1 heterodimer, the pEC50 is 7.40 and the Emax worked out at 101%. The “Maximum peak decrease” value in assay [1] (Dose 1 mpk P.O.) is given as “C (Category C=SBP in SHRs>40 mmHg)”.
Taken in the same sequence, the figures for `[2H]C([2H])([2H])n1ncc2c(-c3nc(N)c4c(n3)NC(=O)C4(C)C(=O)NC3CC3)nc(CCC(F)(F)C(F)(F)F)nc21` (single isomer, unassigned) [Example 32, 4-Amino-N-cyclopropyl-5-methyl-2-(6-(3,3,4,4,4-pentafluorobutyl)-1-trideuteriomethyl-1H-pyrazolo[3,4-d]pyrimidin-4-yl)-6-oxo-6,7-dihydro-5H-pyrrolo[2,3-d]pyrimidine-5-carboxamide] were 7.28, 131% and “A (Category A=SBP in SHRs<25 mmHg)”.
Turning to `[2H]C([2H])([2H])n1nnc2c(-c3nc(N)c4c(n3)NC(=O)C4(c3ccc(F)cc3)C3CC3)nc(CCC(F)(F)C(F)(F)F)nc21` (single isomer, unassigned) [Example 69, 4-Amino-5-cyclopropyl-5-(4-fluorophenyl)-2-(5-(3,3,4,4,4-pentafluorobutyl-3-trideuteriomethyl)-3H-[1,2,3]triazolo[4,5-d]pyrimidin-7-yl)-5H-pyrrolo[2,3-d]pyrimidin-6(7H)-one], at sGC α1/β1 heterodimer, the pEC50 was 5.94 and the Emax worked out at 98%. Moreover, the “Maximum peak decrease” value in assay [1] (Dose 3 mpk P.O.) is given as “B (Category B=SBP in SHRs 25-40 mmHg)”.
With `[2H]C([2H])([2H])n1nnc2c(-c3nc(N)c4c(n3)NC(=O)C4(C)c3ccc(F)c(OC)c3)nc(CCC(F)(F)C(F)(F)F)nc21` (single isomer, unassigned) [Example 72, 4-Amino-5-(4-fluoro-3-methoxyphenyl)-5-methyl-2-(5-(3,3,4,4,4-pentafluorobutyl-3-trideuteriomethyl)-3H-[1,2,3]triazolo[4,5-d]pyrimidin-7-yl)-5H-pyrrolo[2,3-d]pyrimidin-6(7H)-one], on sGC α1/β1 heterodimer, the pEC50 was 6.37 and the Emax came out at 66%.
Taken in the same sequence, the figures for `Cn1ncc2c(-c3nc(N)c4c(n3)NC(=O)C4(C)NC(=O)c3ccccn3)nc(CCC(F)(F)C(F)(F)F)nc21` (stereo not drawn) [Example 51, N-(4-Amino-5-methyl-2-(1-methyl-6-(3,3,4,4,4-pentafluorobutyl)-1H-pyrazolo[3,4-d]pyrimidin-4-yl)-6-oxo-6,7-dihydro-5H-pyrrolo[2,3-d]pyrimidin-5-yl)picolinamide] were 6.13 and 109%.
The matching figures for `C#CC1(CC)C(=O)Nc2nc(-c3nc(CCC(F)(F)C(F)(F)F)nc4c3cnn4C)nc(N)c21` (single isomer, unassigned) [Example 23, 4-Amino-5-ethyl-5-ethynyl-2-(1-methyl-6-(3,3,4,4,4-pentafluorobutyl)-1H-pyrazolo[3,4-d]pyrimidin-4-yl)-5H-pyrrolo[2,3-d]pyrimidin-6(7H)-one]: 7.31 and 106%.
